{"source": "patent US20220168241A1", "about": "“SUSTAINED RELEASE C[…] METHOD OF PREPARATION THEREOF” (PHARMATHEN S.A., priority 2019, published 2022)", "origin": "cited, not measured here", "molecular_target": "recombinant μ-opioid receptor (Homo sapiens, UniProt P35372)", "sequence (P35372 whole entry, species assumed)": "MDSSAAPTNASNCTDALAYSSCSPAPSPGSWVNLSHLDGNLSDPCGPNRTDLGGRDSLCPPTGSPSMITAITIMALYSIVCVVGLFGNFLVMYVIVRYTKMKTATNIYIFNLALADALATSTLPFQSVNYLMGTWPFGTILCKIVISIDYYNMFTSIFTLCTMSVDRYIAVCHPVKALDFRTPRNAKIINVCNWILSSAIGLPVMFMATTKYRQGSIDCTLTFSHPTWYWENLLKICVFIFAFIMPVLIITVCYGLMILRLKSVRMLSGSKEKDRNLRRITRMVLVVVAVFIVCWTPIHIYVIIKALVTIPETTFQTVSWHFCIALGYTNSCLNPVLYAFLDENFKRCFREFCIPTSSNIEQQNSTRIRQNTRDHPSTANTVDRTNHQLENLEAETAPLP"}
{"smiles": "CC[C@@H](c1cccc(O)c1)[C@@H](C)CN(C)C", "note": "[Tapentadol]", "values": [{"measurement": "reduced affinity to recombinant μ-opioid receptor compared to morphine", "result": 18, "unit": "times"}]}
